Among the data in ChEMBL document CHEMBL3132769, “Fragment growing to retain or alter the selectivity of anchored kinase hinge-binding fragments” (Medchemcomm, 2014) are inhibition values, retold here.

The target of test [1] is Serine/threonine-protein kinase MARK2 (Homo sapiens) (UniProt Q7KZI7). Put plainly: Inhibition of human full length MARK2 expressed in baculovirus assessed as substrate phosphorylation using fluorescence-labelled peptides as substrate at 0.2 uM after 90 mins by microfluidic peptide phosphorylation assay.
Chain of Serine/threonine-protein kinase MARK2 (Homo sapiens) (Q7KZI7 whole entry): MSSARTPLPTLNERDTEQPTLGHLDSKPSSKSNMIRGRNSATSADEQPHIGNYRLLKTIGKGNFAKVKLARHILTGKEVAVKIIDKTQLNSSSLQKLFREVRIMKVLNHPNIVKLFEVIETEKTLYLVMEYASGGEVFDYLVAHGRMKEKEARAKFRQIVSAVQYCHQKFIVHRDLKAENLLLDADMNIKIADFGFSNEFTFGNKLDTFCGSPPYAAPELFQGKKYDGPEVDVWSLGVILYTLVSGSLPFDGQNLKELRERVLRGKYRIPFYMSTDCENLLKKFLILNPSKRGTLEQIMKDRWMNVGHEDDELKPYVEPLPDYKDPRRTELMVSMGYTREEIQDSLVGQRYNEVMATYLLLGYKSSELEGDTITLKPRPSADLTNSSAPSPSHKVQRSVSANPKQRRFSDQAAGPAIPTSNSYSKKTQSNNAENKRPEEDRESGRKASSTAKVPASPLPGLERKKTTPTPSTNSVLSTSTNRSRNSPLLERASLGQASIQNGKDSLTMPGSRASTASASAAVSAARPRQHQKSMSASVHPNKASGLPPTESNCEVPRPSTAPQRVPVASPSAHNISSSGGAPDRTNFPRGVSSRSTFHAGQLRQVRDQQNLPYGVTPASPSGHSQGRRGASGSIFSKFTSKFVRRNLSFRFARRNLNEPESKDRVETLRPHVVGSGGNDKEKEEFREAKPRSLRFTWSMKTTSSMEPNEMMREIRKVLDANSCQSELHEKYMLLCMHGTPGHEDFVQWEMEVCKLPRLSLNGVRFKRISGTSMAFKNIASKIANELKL
Test [2] has as its target RAC-alpha serine/threonine-protein kinase (Homo sapiens) (UniProt P31749). As to conditions: 0.1 uM.
Description: Inhibition of human AKT1 catalytic domain expressed in baculovirus assessed as substrate phosphorylation using fluorescence-labelled peptides as substrate at 0.1 uM after 90 mins by microfluidic peptide phosphorylation assay
The target in test [3] is T1, Serine/threonine-protein kinase 3 (Homo sapiens) (UniProt Q13188).
T1 sequence (whole entry): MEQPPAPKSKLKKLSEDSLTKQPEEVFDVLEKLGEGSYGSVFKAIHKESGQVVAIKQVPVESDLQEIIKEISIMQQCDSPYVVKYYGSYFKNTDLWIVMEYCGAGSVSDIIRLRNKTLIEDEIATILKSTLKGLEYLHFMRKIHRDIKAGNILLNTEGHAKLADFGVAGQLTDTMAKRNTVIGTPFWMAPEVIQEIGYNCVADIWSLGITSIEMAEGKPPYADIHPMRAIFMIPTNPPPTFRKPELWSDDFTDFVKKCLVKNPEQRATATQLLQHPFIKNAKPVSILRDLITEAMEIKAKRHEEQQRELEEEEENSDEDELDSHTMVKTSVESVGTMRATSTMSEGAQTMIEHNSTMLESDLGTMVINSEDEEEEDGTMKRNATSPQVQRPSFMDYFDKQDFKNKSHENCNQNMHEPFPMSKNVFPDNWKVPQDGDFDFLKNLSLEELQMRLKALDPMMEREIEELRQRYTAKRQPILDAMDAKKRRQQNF
Put plainly: Inhibition of human full length MST2 expressed in baculovirus assessed as substrate phosphorylation using fluorescence-labelled peptides as substrate at 0.1 uM after 90 mins by microfluidic peptide phosphorylation assay.

In test [4] the target is Vascular endothelial growth factor receptor 2 (Homo sapiens) (UniProt P35968). As to the kind of experiment: Inhibition of human KDR cytoplasmic domain expressed in baculovirus assessed as substrate phosphorylation using fluorescence-labelled peptides as substrate at 420 uM after 90 mins by microfluidic peptide phosphorylation assay.
Chain of Vascular endothelial growth factor receptor 2 (Homo sapiens) (P35968 whole entry, the tested form may be a part): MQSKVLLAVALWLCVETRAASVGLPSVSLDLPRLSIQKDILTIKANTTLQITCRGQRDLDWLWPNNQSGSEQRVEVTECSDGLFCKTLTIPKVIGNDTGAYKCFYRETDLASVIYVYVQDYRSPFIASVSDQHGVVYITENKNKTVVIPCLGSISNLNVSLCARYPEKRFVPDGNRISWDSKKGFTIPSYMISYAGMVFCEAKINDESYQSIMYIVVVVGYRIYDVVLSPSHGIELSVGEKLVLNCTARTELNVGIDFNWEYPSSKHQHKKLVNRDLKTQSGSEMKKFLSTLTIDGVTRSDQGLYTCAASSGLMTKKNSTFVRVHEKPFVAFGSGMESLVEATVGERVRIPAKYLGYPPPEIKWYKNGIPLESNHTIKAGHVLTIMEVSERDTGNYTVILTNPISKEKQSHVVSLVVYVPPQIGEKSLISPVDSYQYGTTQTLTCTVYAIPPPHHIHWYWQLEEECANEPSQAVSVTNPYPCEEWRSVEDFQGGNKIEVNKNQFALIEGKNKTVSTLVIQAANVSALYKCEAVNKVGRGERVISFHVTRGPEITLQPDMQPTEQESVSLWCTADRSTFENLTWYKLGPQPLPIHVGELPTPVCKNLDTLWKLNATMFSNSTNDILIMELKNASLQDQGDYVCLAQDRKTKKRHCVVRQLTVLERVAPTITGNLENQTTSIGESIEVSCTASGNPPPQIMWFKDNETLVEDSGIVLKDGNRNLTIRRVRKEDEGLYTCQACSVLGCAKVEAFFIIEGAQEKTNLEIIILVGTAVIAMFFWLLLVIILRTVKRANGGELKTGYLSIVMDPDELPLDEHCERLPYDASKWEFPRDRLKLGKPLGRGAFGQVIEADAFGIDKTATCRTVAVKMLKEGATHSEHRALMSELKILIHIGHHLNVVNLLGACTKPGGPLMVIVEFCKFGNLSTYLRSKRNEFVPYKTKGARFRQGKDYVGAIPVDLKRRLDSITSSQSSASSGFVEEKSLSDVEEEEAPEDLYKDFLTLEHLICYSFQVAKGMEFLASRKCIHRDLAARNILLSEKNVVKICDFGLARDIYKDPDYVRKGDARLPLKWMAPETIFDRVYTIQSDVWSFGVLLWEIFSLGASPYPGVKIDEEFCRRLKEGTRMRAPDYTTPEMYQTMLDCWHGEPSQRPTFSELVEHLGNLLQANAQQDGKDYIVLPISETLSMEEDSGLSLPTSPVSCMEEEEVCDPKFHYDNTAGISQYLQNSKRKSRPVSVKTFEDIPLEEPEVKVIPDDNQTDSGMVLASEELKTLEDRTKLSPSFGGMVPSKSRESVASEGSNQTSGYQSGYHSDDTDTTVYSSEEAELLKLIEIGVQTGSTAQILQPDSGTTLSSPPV
The target of test [5] is Protein kinase C alpha type (Homo sapiens) (UniProt P17252). Put plainly: Inhibition of human truncated PKC alpha expressed in baculovirus assessed as substrate phosphorylation using fluorescence-labelled peptides as substrate at 0.06 uM after 90 mins by microfluidic peptide phosphorylation assay.
Test [6] has as its target T2, Serine/threonine-protein kinase D2 (Homo sapiens) (UniProt Q9BZL6).
T2 sequence (whole entry): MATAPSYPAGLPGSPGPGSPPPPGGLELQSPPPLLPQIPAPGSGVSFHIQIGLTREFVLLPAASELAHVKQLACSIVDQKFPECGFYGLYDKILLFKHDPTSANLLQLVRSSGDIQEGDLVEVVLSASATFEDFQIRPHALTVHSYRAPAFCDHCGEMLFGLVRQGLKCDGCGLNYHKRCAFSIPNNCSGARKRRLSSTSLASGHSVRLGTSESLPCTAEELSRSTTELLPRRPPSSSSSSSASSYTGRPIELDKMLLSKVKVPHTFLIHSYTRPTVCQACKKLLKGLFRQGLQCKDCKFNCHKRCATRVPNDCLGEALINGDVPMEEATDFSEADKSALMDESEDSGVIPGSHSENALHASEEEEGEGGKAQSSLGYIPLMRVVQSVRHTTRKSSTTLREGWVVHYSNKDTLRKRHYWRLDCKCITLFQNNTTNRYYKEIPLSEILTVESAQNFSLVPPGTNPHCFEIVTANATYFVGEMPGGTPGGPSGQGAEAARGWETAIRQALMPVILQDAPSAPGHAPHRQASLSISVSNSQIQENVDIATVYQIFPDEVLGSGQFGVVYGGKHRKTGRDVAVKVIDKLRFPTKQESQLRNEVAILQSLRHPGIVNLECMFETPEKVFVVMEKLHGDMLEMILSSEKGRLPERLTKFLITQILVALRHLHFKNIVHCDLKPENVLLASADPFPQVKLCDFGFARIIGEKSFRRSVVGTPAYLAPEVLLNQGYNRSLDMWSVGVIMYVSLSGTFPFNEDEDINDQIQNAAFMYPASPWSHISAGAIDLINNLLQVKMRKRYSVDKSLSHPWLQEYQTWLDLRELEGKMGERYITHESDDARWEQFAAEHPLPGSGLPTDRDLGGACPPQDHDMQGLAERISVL
Put plainly: Inhibition of human full length PKD2 expressed in baculovirus assessed as substrate phosphorylation using fluorescence-labelled peptides as substrate at 2 uM after 90 mins by microfluidic peptide phosphorylation assay.

For test [7], the target named is T3, Aurora kinase A (Homo sapiens) (UniProt O14965).
T3 sequence (whole entry): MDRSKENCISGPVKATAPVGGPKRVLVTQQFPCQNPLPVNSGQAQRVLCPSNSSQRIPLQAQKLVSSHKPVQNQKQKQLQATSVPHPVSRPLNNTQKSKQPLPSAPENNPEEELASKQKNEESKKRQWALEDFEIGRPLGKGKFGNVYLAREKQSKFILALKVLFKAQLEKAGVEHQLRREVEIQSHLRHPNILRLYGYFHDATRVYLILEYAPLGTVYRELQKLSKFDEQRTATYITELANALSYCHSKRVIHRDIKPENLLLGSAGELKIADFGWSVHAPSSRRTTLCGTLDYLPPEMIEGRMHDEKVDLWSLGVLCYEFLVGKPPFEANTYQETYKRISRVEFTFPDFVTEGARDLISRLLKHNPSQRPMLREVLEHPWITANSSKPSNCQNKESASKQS
As to the kind of experiment: Inhibition of human full length AurA expressed in baculovirus assessed as substrate phosphorylation using fluorescence-labelled peptides as substrate at 70 uM after 90 mins by microfluidic peptide phosphorylation assay.

Test [8] has as its target Platelet-derived growth factor receptor alpha (Homo sapiens) (UniProt P16234). Put plainly: Inhibition of human PDGFR alpha catalytic domain expressed in baculovirus assessed as substrate phosphorylation using fluorescence-labelled peptides as substrate at 70 uM after 90 mins by microfluidic peptide phosphorylation assay.

Chain of Platelet-derived growth factor receptor alpha (Homo sapiens) (P16234 whole entry, the tested form may be a part): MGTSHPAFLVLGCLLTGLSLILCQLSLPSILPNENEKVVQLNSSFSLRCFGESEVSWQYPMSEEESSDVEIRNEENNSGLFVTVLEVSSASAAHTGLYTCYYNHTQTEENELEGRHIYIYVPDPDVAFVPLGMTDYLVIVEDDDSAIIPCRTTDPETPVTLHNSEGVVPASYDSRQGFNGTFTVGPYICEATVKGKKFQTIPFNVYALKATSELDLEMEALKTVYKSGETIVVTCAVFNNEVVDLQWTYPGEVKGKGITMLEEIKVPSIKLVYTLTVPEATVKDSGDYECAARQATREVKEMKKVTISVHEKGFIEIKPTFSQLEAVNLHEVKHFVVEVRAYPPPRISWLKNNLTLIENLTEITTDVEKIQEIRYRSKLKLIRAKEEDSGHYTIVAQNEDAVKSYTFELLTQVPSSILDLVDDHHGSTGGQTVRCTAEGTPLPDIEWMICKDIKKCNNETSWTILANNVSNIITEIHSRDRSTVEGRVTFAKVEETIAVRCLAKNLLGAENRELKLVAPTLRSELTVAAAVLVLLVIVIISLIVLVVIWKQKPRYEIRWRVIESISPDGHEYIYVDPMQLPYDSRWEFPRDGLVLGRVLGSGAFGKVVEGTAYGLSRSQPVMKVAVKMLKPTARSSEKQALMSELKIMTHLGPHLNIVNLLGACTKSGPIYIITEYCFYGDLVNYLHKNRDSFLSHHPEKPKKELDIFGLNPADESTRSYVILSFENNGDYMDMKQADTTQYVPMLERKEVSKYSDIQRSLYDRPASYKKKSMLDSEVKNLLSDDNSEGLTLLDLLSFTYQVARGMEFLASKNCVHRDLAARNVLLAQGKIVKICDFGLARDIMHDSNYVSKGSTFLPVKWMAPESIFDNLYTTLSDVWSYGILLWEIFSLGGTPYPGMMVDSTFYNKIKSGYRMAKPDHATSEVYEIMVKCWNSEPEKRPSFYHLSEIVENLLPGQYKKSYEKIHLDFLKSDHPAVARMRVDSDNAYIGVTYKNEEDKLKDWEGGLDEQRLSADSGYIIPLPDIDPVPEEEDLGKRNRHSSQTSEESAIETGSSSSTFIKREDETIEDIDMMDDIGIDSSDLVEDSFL
Chain of RAC-alpha serine/threonine-protein kinase (Homo sapiens) (P31749 whole entry): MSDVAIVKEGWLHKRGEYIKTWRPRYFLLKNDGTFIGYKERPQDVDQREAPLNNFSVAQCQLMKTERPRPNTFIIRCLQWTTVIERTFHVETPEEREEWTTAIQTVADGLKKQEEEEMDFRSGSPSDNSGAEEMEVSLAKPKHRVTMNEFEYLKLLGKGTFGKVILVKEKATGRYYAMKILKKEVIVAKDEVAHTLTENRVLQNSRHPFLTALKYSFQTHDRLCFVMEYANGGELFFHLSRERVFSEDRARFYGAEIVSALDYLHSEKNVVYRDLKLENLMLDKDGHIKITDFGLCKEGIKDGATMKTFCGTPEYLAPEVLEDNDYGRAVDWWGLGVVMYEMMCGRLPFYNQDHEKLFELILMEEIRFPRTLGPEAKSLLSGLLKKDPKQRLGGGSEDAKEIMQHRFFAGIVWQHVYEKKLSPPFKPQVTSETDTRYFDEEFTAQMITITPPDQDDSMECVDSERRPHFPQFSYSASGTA

Take `Clc1ccc(C2(c3ccc(-c4ncnc5[nH]cnc45)cc3)CCNCC2)cc1`: in test [1], the inhibition stood at 41.5%.

Regarding `C[C@H](CN(C)C)Oc1nc(Nc2cc3cccc(Cl)c3cn2)cnc1C#N`, the inhibition in test [2] was found to be 0%; in test [3], 11.5%.

Take `c1nc(N2CCOCC2)c2nc[nH]c2n1`: the inhibition in test [4] is 95.5%.

With `NC1(Cc2ccc(Cl)cc2)CCN(c2ncnc3[nH]ccc23)CC1`, the inhibition in test [5] is 30%.

For `NC1CCN(c2ncnc3[nH]ccc23)CC1`, the inhibition in test [6] was 6.5%.

With `CNCc1ccc(-c2ncnc3[nH]cnc23)cc1`, the inhibition in test [7] turned out to be 68%; in test [8], 16.5%.
